Results on five molecules are retold here after patent publication US8519183B2, “Uses for amino acid anticonvulsants” (Research Corporation Technologies, Inc., priority 2000, dated 2013).

The subject of data set [1] is ICR derived male or female mice. Briefly: formalin induced hind paw licking. In kind it is in vivo. The following applies: 300 mg/kg PO. The protocol:
The degree of pain is determined by measuring the decrease in the amount of time the animal spends licking the formalin-injected paw after administration of the drug.
Reduction of the induced hind paw licking time recorded during the following 20 to 30 minutes period by 50 percent or more (50%) indicated analgesic activity.

For data set [2] the test system is unchanged. Briefly: Analgesia, Acetic Acid Writhing. In kind it is in vivo. The following applies: 100 mg/kg PO. The text has this:
In the first animal study in Example 1, the degree of pain experienced by the mice after injection by acetic acid is seen by the number of writhes. If the mice experience no pain, there is no writhing.
The protocol is based on the acetic acid writhing test in mice, developed by R. Koster, et al. Fed. Proc, 18, 412 […], and referred to a Koster test and Hunskarai, S., et al., J. Neuroscience Meth. 14: 69-76, 1985.
Reduction in the number of writhes by 50 percent or more (≧50%) per group of animals observed during the 5 to 10 minute period after acetic acid administration, relative to a vehicle treated control group, indicated analgesic activity.

In data set [3] the target is T1, serotonin 5-HT1A receptor (Rattus norvegicus, UniProt P19327).
T1 construct: from tissue; host or cells: living Long Evans derived rat (in vivo)
T1 sequence (P19327 1-422): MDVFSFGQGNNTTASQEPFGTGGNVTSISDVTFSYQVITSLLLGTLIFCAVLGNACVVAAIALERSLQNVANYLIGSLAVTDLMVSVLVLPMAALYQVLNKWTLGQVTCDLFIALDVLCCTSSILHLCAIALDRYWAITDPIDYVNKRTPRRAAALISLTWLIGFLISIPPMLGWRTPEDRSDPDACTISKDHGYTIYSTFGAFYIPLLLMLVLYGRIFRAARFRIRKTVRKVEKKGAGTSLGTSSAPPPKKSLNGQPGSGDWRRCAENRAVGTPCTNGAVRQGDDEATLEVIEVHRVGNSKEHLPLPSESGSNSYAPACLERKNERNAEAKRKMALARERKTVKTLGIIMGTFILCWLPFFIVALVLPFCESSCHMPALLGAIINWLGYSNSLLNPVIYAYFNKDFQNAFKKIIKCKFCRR
Briefly: 5-MeODMT-induced head twitch. The class given is in vivo, rats. The following applies: 10 mg/kg PO, 3 rats. The protocol:
Test substance was administered PO (30 mg/kg) to a group of 3 Long Evans derived male or female rats weighing 150±20 gms one hour before injection of 5-MeODMT (5-methoxy-N,N-dimethyltryptamine, 3 mg/kg IP).

The subject of the next data set is male ICR mice. Nature of the data set: radiant heat induced tail flick response. In kind it is in vivo. The procedure:
Groups of 4 male ICR mice weighing 22±2 gms were employed. A dose (30 mg/kg) of test compound dissolved in a vehicle of saline was administered intraperitoneally. The control group received vehicle alone. At pretreatment (0 minute) a focused beam of radiant heat was applied to the middle dorsal surface of the tail to elicit a tail flick response within 6-7.5 seconds in pre-treated animals. A maximum cut-off time of 15 seconds was set. The time required to elicit a pain response was recorded for each animal at 0 and 30 minutes following administration of test compound. Prolongation by 50 percent or more (≧50%) of the time required to elicit a tail flick indicated analgesic activity.

The next data set concerns the target NMDA receptor (Mus musculus, UniProt P35438). Nature of the data set: NMDA receptor agonism/antagonism after ICVT administration. The conditions noted are these: ICVT 1 μg/mouse, N 3.
Another data set deals with Holtzman male rats. Nature of the data set: NMDA Induced Hyperalgesia (thermal escape latency). In kind it is in vivo. The protocol: Holtzman male rats weighing 275 to 325 grams were prepared with lumbar intrathecal catheters under isoflurane anesthesia. The catheters were externalized on the back of the head. Four to five days after implant, the animals were employed.
NMDA administration was accomplished using a gear driven microinjection syringe connected to the spinal catheter by a length of calibrated PE-90 tubing. The catheter plug was immediately replaced to avoid back flow and the rat was replaced in its testing box.
A modified Hargreaves box was used which allows the direction of a focused light beam on the underface of the paw through a glass surface upon which the rat stands. Surface temperature was maintained at 30° C. Withdrawal of the paw was taken as the response. Lack of response within twenty seconds was cause to terminate the test and assign that score.
The rats were placed on the thermal escape box and allowed to acclimate for 30 minutes prior to testing. A measurement was taken for each hindpaw to establish an average baseline latency (counted as time=0). (2R)-2-(acetylamino)-N-[(4-fluorophenyl)methyl]-3-methoxypropanamide solution, that is, test product in this experiment, was given at an intrathecal dose of 1 μg/10 μl 10 minutes prior to intrathecal NMDA. A control group was given an identical amount of saline 10 minutes prior to intrathecal NMDA. Measurements were then made at 15, 30, 60, 120, 240 and 360 minutes after intrathecal NMDA injection. General behavior assessments were made during each period of observation and include: tactile allodynia (vocalization/agitation induced by light touch applied to the body surface), spontaneous vocalization, biting and chewing of body surface, loss of hind limb placing and stepping reflex, loss of hind limb weight bearing and loss of righting reflex.

For data set [4], the system named is Sprague Dawley male rats. Briefly: Chung model of neuropathy, tactile threshold (von Frey hairs). The class given is in vivo. The procedure:
Sprague Dawley male rats weighing 275 to 325 grams was used in this experiment. In this experiment, the response to neuropathic pain was determined. The neuropathic preparation used to induce an allodynic state is the surgical procedure described by Kim and Chung in Pain, 1992, 50, 355-363 (1992) and outlined in Chaplain, et al. in J. Neurosci. Meth., 1994, 53, […]. Briefly, the left L5 and L6 spinal nerves were isolated adjacent to the vertebral column and ligated with 6-0 silk suture distal to the dorsal root ganglion under isoflurane anesthesia. The rats were allowed a minimum 7 day postoperative recovery period before placement in the study.
Testing groups consisted of 6 rats per group. Each group received test article, (2R)-2-acetyl-amino)-N-[(4-fluorophenyl)methyl]-3-methoxypropanamide (hereinafter “test article”), in one of three concentrations delivered intraperitoneally; the high concentration was 50 mg/kg, the medium concentration was 30 mg/kg and the low concentration was 20 mg/kg. One group of 6 rats received saline control solution at a volume equal to that used for test article.
To assess tactile thresholds, rats were placed in a clear plastic, wire mesh-bottomed cage, divided into individual compartments. Animals were allowed to accommodate and then baseline thresholds were taken prior to drug treatment. To determine the 50% mechanical threshold for paw withdrawal, von Frey hairs were applied to the plantar mid-hindpaw, avoiding the tori (footpads). The eight von Frey hairs used are designated by [log(10*force required to bend hair, mg)] and range from 0.4-15.1 grams. Each hair was pressed perpendicularly against the paw with sufficient force to cause slight bending, and held for approximately 6-8 seconds. […] Stimuli were presented successively until either six data points were collected, or the maximum or minimum stimulus was reached. […] If a change in response occurred, either “−” to “+” or “+” to “−”, causing a change in the direction of stimulus presentation from descending to ascending or vice-versa, four additional data points were collected subsequent to the change. The resulting pattern of responses were tabulated and the 50% response threshold computer using the formula: log(threshold, mg×10)=Xf+kh
wherein: • Xf=value of the last von Frey hair applied; • k=correction factor based on response pattern (from calibration table) • h=mean distance in log units between stimuli.
Based on observations on normal, —operated rats and sham-operated rats, the cutoff of a 15.1-g hair is selected as the upper limit for testing.
The test was performed to establish an average baseline value, counted as time 0; then again at 15, 30, 60, 120 and 240 minutes after the dosing by the control saline solution or the test article.

For data set [5], the system named is Sprague Dawley male rats. Briefly: general behavioral assessment at intraperitoneal doses of 30 to 100 mg/kg. The class given is in vivo. The source says: General behavioral assessments were made during each period of observation and include: tactile allodynia (vocalization/agitation induced by light touch applied to the body surface), spontaneous vocalization, biting and chewing of body surface, loss of hind limb placing and stepping reflex, loss of hind limb weight bearing, and loss of righting reflex. All assessments, were noted as “present”, “absent” or ranked according to a graded scale.
Four rats were examined at intraperitoneal (IP) doses of 30 to 100 mg/kg.

SMILES strings stand for the structures. Several values for one entry are separate records, joined by “and”; a condition that tells them apart may be missing. Identical values can stand only once.

Procedure for NMDA receptor: Test substance was administered ICVT (intracerebroventricular, 30 μg in 5 μl/mouse). The appearance of convulsions/mortality in 2 or more (≧2) of 3 ICR derived male or female mice weighing 22±2 gms within the 5 minutes thereafter would indicate NMDA receptor agonism. At a dose where no significant agonist activity was seen within 5 minutes, ability to inhibit NMDA (60 mg/kg IV)—induced Tonic convulsions/mortality in 2 or more (≧2) of 3 ICR derived male or female mice weighing 22±gms within the following 5 minutes indicated NMDA receptor antagonist activity.

For `CC(=O)Oc1ccccc1C(=O)O` [Aspirin, reference compound], the “% Inh.” value in data set [1] is recorded as 72%; in data set [2] (relative to vehicle control), 100%. Also, the “Licking Time, Ave.” value in data set [1] (5 mice) was 36 s. Besides, in data set [2] (group of 3 mice), the “No. of Writhes, X ± SEM” value was “X ± SEM 0 ± 0”. Further, the “No. of Writhes (individual animal)” value in data set [2] (one hour before acetic acid, 5 to 10 minute period) came to 0.
As for `CN1C(=O)CN=C(c2ccccc2)c2cc(Cl)ccc21` [Diazepam, reference compound], the “Head Twitch, Ave.” value in data set [3] turned out to be 2.
`CN1CC[C@]23c4c5ccc(O)c4O[C@H]2[C@@H](O)C=C[C@H]3[C@H]1C5` [Morphine, reference compound]: the “% Inh.” value in the data set with male ICR mice (10 mg/kg IP) is given as 100%. Also, in the data set with male ICR mice (10 mg/kg IP, 30 minutes after administration, cut-off 15 seconds), the “Response Time 30 Min. (individual animal)” value is more than 15. In addition, in the data set on male ICR mice (10 mg/kg IP, mean of 4 mice), the “Response Time 30 Min., X” value was 15.0. In addition, the “Response Time 0 Min., X” value with male ICR mice (10 mg/kg IP, mean of 4 mice, pretreatment) worked out at 6.9. The “Response Time 0 Min. (individual animal)” value in the data set with male ICR mice (10 mg/kg IP, pretreatment (0 minute)) is 7.4 (2×) and 6.5 and 6.4. Also, in the data set on male ICR mice (morphine control), the “radiant heat induced tail flick response (in words)” value is “positive response”.
With `CN[C@H](CC(=O)O)C(=O)O` [NMDA, N-methyl-D-aspartate, reference compound], the “Agonism (mice with convulsions/mortality within 5 minutes)” value on NMDA receptor is on record as 3.
`COC[C@@H](NC(C)=O)C(=O)NCc1ccc(F)cc1` [test article, (2R)-2-(acetylamino)-N-[(4-fluorophenyl)methyl]-3-methoxypropanamide]: in the data set with Holtzman male rats (intrathecal 1 μg/10 μl 10 minutes prior to intrathecal NMDA, out to 20 minutes post NMDA injection, n=2), the “thermal escape latency, baseline maintained” value is reported as “about 14 second”. Further, in the data set on Holtzman male rats (intrathecal 1 μg/10 μl, later than 20 minutes post NMDA injection, n=2), the “thermal escape latency after dropping” value is listed as “approximately 10 seconds”. The “anti-hyperalgesic action in NMDA induced thermal hyperalgesia (in words)” value with Holtzman male rats (preliminary data) is “measurable anti-hyperalgesic actions”. Further, in the data set with Sprague Dawley male rats [4] (15 mg/kg, previous study), the “effect on the Chung Model (in words)” value is given as “no effect”. For the same molecule, the “tactile threshold after dosing (increase from approximately 2)” value was approximately 5 grams in the data set on Sprague Dawley male rats [4] (20 mg (per kg) IP, 6 rats) and approximately 5 grams in the data set on Sprague Dawley male rats [4] (30 mg/kg IP, 6 rats). Further, the rats appearing sedated result in the data set with Sprague Dawley male rats [4] (30 mg IP, for approximately 1 hour) is given as “Four of 6”; with Sprague Dawley male rats [4] (50 mg/kg IP, for approximately 1 hour post injection), 6 of 6. Also, the “tactile threshold after dosing (increase from 2)” value in the data set with Sprague Dawley male rats [4] (50 mg/kg IP, 6 rats) amounted to 11 grams. Besides, the “duration of effect after injection” value in the data set on Sprague Dawley male rats [4] (IP, Chung Model) is “approximately 2 hours”. Besides, in the data set with Sprague Dawley male rats [4] (delivered intraperitoneally), the “reversal of tactile allodynia (in words)” value was “significant reversal of tactile allodynia”. The behavioral observation result with Sprague Dawley male rats [5] (30 mg/kg IP, one rat) was “no behavioral deficit”; in the data set with Sprague Dawley male rats [5] (50 mg/kg IP, one rat, lasted 60 minutes), “slightly catatonic”; in the data set on Sprague Dawley male rats [5] (60 mg/kg IP, one rat, within 15 minutes, severe exopthalmos, euthanized) it was “catatonic and displayed abnormal ambulation”; in the data set with Sprague Dawley male rats [5] (90 mg/kg IP, one rat, within 15 minutes, flaccid, severe exopthalmos, euthanized), “catatonic and unable to right itself”; with Sprague Dawley male rats [5] (100 mg/kg IP, one rat, within 15 minutes, euthanized), “laterally recumbent displaying seizures and bleeding from the nose”; with Sprague Dawley male rats [5] (Fifteen mg/kg, previously shown), “no observable affect”.
